# Experimental data published in patent US9540369B2, “Use of kinase inhibitors to increase the susceptibility of gram positive bacteria to beta lactam antibiotics” (Wisconsin Alumni Research Foundation, priority 2014, dated 2017).
# Entries after “also recorded” stand apart in the source; their conditions may differ.
# Tests used:
# L. monocytogenes [1] = assay: Broth growth curves of L. monocytogenes with antibiotic in presence or absence of kinase inhibitor; type: cell-based, Listeria monocytogenes; settings: for inhibition of growth in a β-lactam synergistic dependent manner: ceftriaxone; for synergy with ceftriaxone against L. monocytogenes: AIA drugs at 10 μM
# [2] = system: Methicillin-resistant S. aureus (strain USA300); assay: Broth growth curves of Methicillin-resistant S. aureus (USA300) with antibiotic in presence or absence of kinase inhibitor; type: cell-based, Staphylococcus aureus
# PrkA [3] = assay: In vitro protein phosphorylation (autophosphorylation and MBP phosphorylation), PrkA; type: biochemical, L. monocytogenes; settings: 1 μM, 10 μM or 100 μM inhibitor
# Method: (§1) In vitro protein phosphorylation. […] To investigate substrate-level phosphorylation, ˜10 μg of myelin basic protein (Novatein Biosciences, Woburn, Mass.) were added to the reaction mixture described above and incubated at room temperature, overnight. The reactions were terminated by adding 5X SDS loading buffer. Samples were fractionated by SDS-PAGE, fixed and dried, and analyzed by autoradiography.
# Lmo0618 = assay: In vitro protein phosphorylation (autophosphorylation and MBP phosphorylation), Lmo0618; type: biochemical, L. monocytogenes; settings: 1 μM, 10 μM or 100 μM inhibitor
# Method: as §1
# L. monocytogenes [4] = type: cell-based, Listeria monocytogenes; settings: β-lactam dependent growth inhibition
# M. smegmatis = M. smegmatis growth curves with or without meropenem; type: cell-based, Mycobacterium smegmatis; settings: 10 μM inhibitor
# Method: Various AIA drugs were administered at 10 μM concentration to M. smegmatis, L. monocytogenes, and S. aureus.
# PrkA [5] = assay: Kinase-Glo assay, PrkA; type: biochemical, L. monocytogenes
# Stk1 = assay: Kinase-Glo assay, Stk1; type: biochemical, S. aureus; settings: 0-40 μM inhibitor, 20 μM ATP, 10 μM MBP
# PknB = PknB (Mycobacterium tuberculosis, UniProt P9WI81)
# [6] = target: PrkA (PASTA kinase of L. monocytogenes; kinase domain, GST fusion) (Listeria monocytogenes, UniProt A0A0H3GI69); assay: biochemical
# zebrafish (Danio rerio) = assay: Zebrafish toxicity assay; settings: administered in their environment for five days
# Method: Human kinase inhibitors were administered to zebrafish in their environment for five days.
# MSRA = settings: β-lactam dependent growth inhibition
# [7] = 0-40 μM inhibitor, 20 μM ATP, 10 μM MBP
structure (smiles),measurement,setting,value
Cc1ncc(-c2ccnc(Nc3ccc(S(C)(=O)=O)cc3)n2)n1C(C)C [AZD5438],inhibition of growth in a β-lactam synergistic dependent manner,L. monocytogenes [1]; 50 μM AZD5438,capable of inhibiting L. monocytogenes growth
same,synergy with β-lactam antibiotics against S. aureus,"[2]; AZD5438, data not shown",not S. aureus
same,inhibition of PrkA autophosphorylation and substrate level (MBP) phosphorylation,PrkA [3],specifically inhibits PrkA
same,inhibition of Lmo0618 phosphorylation activity,Lmo0618,not inhibiting
same,effective dose against L. monocytogenes,L. monocytogenes [4],10 µM
CCn1c(-c2nonc2N)nc2c(C#CC(C)(C)O)ncc(OC[C@@H]3CCCN3)c21 [GSK614526A],synergy with ceftriaxone against L. monocytogenes,L. monocytogenes [1],can inhibit growth in concert with ceftriaxone
same,synergistic activity with meropenem against M. smegmatis,M. smegmatis,None
"CCn1c(-c2nonc2N)nc2c(C#CC(C)(C)O)ncc(OC[C@H]3CCCNC3)c21 [GSK690693, 4-(2-(4-amino-1,2,5-oxadiazol-3-yl)-1-ethyl-7-{[(3S)-3-piperidinylmethyl]oxy}-1H-imidazo[4,5-c]pyridin-4-yl)-2-methyl-3-butyn-2-ol]",synergy with ceftriaxone against L. monocytogenes,L. monocytogenes [1],can inhibit growth in concert with ceftriaxone
same,inhibition of growth in a β-lactam synergistic dependent manner,L. monocytogenes [1]; 100 μM GSK690693,inhibited L. monocytogenes growth in a β-lactam synergistic dependent manner
same,effective dose against L. monocytogenes,L. monocytogenes [4],10 µM
same,inhibition of PrkA enzymatic activity in vitro,PrkA [5]; [7],can inhibit
same,inhibition for PrkA compared to Stk1,PrkA [5]; biochemical,four-fold increase in inhibition
same,inhibition of Stk1 enzymatic activity in vitro,Stk1,can inhibit
same,synergistic activity with meropenem against M. smegmatis,M. smegmatis,exhibits synergy; also recorded: can work to inhibit growth synergistically with meropenem
same,inhibition of PknB enzymatic activity in vitro,PknB; [7],can inhibit
same,inhibition for PknB compared to Stk1,PknB; biochemical,four-fold increase in inhibition
same,IC50,[6],1200 nM
same,toxicity in zebrafish,zebrafish (Danio rerio),does not induce toxicity
CCn1c(-c2nonc2N)nc2c(C#CC(C)(C)O)nc(OC[C@@H](N)c3ccccc3)cc21 [GSK938890A],synergy with ceftriaxone against L. monocytogenes,L. monocytogenes [1],can inhibit growth in concert with ceftriaxone
same,effective dose against L. monocytogenes,L. monocytogenes [4],10 µM
same,synergistic activity with meropenem against M. smegmatis,M. smegmatis,None
CCn1c(-c2nonc2N)nc2c(C#CC(C)(C)O)nc(OC[C@H](N)c3ccccc3)cc21 [GSK943949A],synergy with ceftriaxone against L. monocytogenes,L. monocytogenes [1],can inhibit growth in concert with ceftriaxone
same,synergistic activity with meropenem against M. smegmatis,M. smegmatis,None
CCn1c(-c2nonc2N)nc2c(C#CC(C)(C)O)nc(OCCNC)cc21 [GSK949675A],synergy with ceftriaxone against L. monocytogenes,L. monocytogenes [1],can inhibit growth in concert with ceftriaxone
same,effective dose against L. monocytogenes,L. monocytogenes [4],10 µM
same,synergistic activity with meropenem against M. smegmatis,M. smegmatis,None
same,effective dose against MSRA,MSRA,10 µM
CCn1c(-c2nonc2N)nc2c(C#CC(C)(C)O)nc(O[C@@H](CN)c3ccccc3)cc21.O=C(O)C(F)(F)F [GSK1007102B],synergy with ceftriaxone against L. monocytogenes,L. monocytogenes [1],can inhibit growth in concert with ceftriaxone
same,synergistic activity with meropenem against M. smegmatis,M. smegmatis,showing such a synergistic effect
same,effect on M. smegmatis growth in the absence of a β-lactam,M. smegmatis; no additional drugs,minor affect on growth; also recorded: shows inhibition in the absence of a β-lactam
CCn1c(-c2nonc2N)nc2c(C#CC(C)(C)O)nc(CN3CCCC3)cc21 [GW1000163A],synergy with ceftriaxone against L. monocytogenes,L. monocytogenes [1],did not exhibit such synergistic activity
same,synergistic activity with meropenem against M. smegmatis,M. smegmatis,None
O=c1c2ccccc2[nH]c(=S)n1CCN1CCC(=C(c2ccc(F)cc2)c2ccc(F)cc2)CC1 [diacylglycerol kinase inhibitor II],toxicity in zebrafish,zebrafish (Danio rerio),highly toxic
CN[C@@H]1C[C@H]2O[C@@](C)([C@@H]1OC)n1c3ccccc3c3c4c(c5c6ccccc6n2c5c31)C(=O)NC4 [staurosporine],susceptibility to vancomycin or kanamycin,L. monocytogenes [1]; 10 μM staurosporine,unaffected
same,increase in susceptibility to ceftriaxone upon overexpression of prkA,"L. monocytogenes [1]; prkA^theo strain, 2 mM theophylline, 10 μM staurosporine",10 fold
same,bacterial morphology by immunofluorescence microscopy,L. monocytogenes [1]; staurosporine combined with β-lactam antibiotics,grossly disrupted bacterial morphology
same,sensitization to lysozyme,"L. monocytogenes [1]; staurosporine, data not shown",increased the sensitization
same,increase in susceptibility to ceftriaxone,"L. monocytogenes [1]; wild type, 10 μM staurosporine",100 fold
same,S. aureus susceptibility to ceftriaxone or other β-lactam or non-β-lactam antibiotics,[2]; 10 μM staurosporine,unaffected
